Measurements from patent US8501946B2 (Glaxo Group Limited, priority 2009, dated 2013).

What follows are molecules tested against T1, human recombinant P2X7 receptors (Homo sapiens, UniProt Q99572) (assay: Ethidium Accumulation Assay 1 (HEK293 cells, ATP-induced ethidium uptake)). Settings: HEK293 cells expressing human P2X7; 1 mM ATP; sometimes mean of more than one measurement; read-out: Assay 1 (antagonist pIC50 for blocking ATP responses) (converted).
T1 construct: expressed in transfected cells
T1 sequence (Q99572 1-595): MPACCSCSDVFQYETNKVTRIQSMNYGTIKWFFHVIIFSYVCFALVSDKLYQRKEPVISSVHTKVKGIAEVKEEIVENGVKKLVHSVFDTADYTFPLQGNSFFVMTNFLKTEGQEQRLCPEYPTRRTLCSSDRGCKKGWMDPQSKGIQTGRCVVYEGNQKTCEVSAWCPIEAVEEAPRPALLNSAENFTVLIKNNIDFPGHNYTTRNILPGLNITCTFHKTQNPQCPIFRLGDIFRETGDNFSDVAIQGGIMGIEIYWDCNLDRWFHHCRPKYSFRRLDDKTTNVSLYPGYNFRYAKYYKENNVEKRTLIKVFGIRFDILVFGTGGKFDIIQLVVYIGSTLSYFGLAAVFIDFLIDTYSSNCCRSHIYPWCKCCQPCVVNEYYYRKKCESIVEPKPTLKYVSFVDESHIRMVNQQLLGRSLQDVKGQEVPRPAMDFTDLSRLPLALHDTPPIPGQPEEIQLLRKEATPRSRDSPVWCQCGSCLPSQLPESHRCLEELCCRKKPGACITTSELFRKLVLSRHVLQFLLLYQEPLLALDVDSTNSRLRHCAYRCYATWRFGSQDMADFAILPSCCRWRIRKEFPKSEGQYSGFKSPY
Format: cell-based

SMILES | IC50
Cc1cc(-c2nnc3n2CCN(C(=O)c2ccc(F)cc2Cl)C3)no1 [Example 71, 7-[(2-chloro-4-fluorophenyl)carbonyl]-3-(5-methyl-3-isoxazolyl)-5,6,7,8-tetrahydro[1,2,4]triazolo [4,3-a]pyrazine] | < 501 nM
Cc1cc(-c2nnc3n2CCN(C(=O)c2cccc(Cl)c2Cl)C3)no1 [Example 49, 7-[(2,3-dichlorophenyl)carbonyl]-3-(5-methyl-3-isoxazolyl)-5,6,7,8-tetrahydro[1,2,4]triazolo [4,3-a]pyrazine] | < 100 nM
Cn1nccc1-c1nnc2n1CCN(C(=O)c1cccc(Cl)c1Cl)C2 [Example 81, 7-[(2,3-dichlorophenyl)carbonyl]-3-(1-methyl-1H-pyrazol-5-yl)-5,6,7,8-tetrahydro[1,2,4]triazolo [4,3-]pyrazine] | < 100 nM
Cc1cccc(-c2nnc3n2CCN(C(=O)c2cccc(Cl)c2Cl)C3)n1 [Example 69, 7-[(2,3-dichlorophenyl)carbonyl]-3-(6-methyl-2-pyridinyl)-5,6,7,8-tetrahydro[1,2,4]triazolo [4,3-a]pyrazine] | < 10 nM
O=C(c1ccccc1Cl)N1CCn2c(nnc2-c2cnccn2)C1 [Example 120, 7-[(2-chlorophenyl)carbonyl]-3-(2-pyrazinyl)-5,6,7,8-tetrahydro[1,2,4]triazolo[4,3-a]pyrazine] | < 100 nM
O=C(c1ccc(Cl)cc1F)N1CCn2c(nnc2-c2ccccn2)C1 [Example 96, 7-[(4-chloro-2-fluorophenyl)carbonyl]-3-(2-pyridinyl)-5,6,7,8-tetrahydro[1,2,4]triazolo [4,3-a]pyrazine] | < 100 nM
O=C(c1ccccc1Cl)N1CCn2c(nnc2-c2ccncn2)C1 [Example 116, 7-[(2-chlorophenyl)carbonyl]-3-(4-pyrimidinyl)-5,6,7,8-tetrahydro[1,2,4]triazolo[4,3-a]pyrazine] | < 501 nM
COCCc1nnc2n1CCN(C(=O)c1cccc(C(F)(F)F)c1Cl)C2 [Example 137, 7-{[2-chloro-3-(trifluoromethyl)phenyl]carbonyl}-3-[2-(methyloxy)ethyl]-5,6,7,8-tetrahydro[1,2,4]triazolo[4,3-a]pyrazine] | < 100 nM
O=C(c1ccc(F)c(Cl)c1)N1CCn2c(nnc2-c2cnccn2)C1 [Example 105, 7-[(3-chloro-4-fluorophenyl)carbonyl]-3-(2-pyrazinyl)-5,6,7,8-tetrahydro[1,2,4]triazolo [4,3-a]pyrazine] | < 100 nM
O=C(c1cccc(C(F)(F)F)c1F)N1CCn2c(nnc2-c2ccccn2)C1 [Example 91, 7-{[2-fluoro-3-(trifluoromethyl)phenyl]carbonyl}-3-(2-pyridinyl)-5,6,7,8-tetrahydro[1,2,4]triazolo [4,3-a]pyrazine] | < 10 nM
O=C(c1cccc(C(F)(F)F)c1Cl)N1CCn2c(nnc2-c2ccccc2O)C1 [Example 138, 2-(7-{[2-chloro-3-(trifluoromethyl)phenyl]carbonyl}-5,6,7,8-tetrahydro[1,2,4]triazolo[4,3-a]pyrazin-3-yl)phenol] | < 10 nM

The molecules below were run against T1, human recombinant P2X7 receptors (assay: Ethidium Accumulation Assay 2 (HEK293 cells, ATP-induced ethidium uptake)). Settings: HEK293 cells expressing human P2X7; sometimes mean of more than one measurement; read-out: Assay 2 (antagonist pIC50 for blocking ATP responses) (converted).
Format: cell-based
Procedure: Eithidium Accumulation Assay 2
Human Embryonic Kidney (HEK) 293 cells, stably expressing human recombinant P2X7 receptors, were grown in poly-D-lysine pretreated 96 well plates for 24 hours at 37° C.
The cells were washed with assay buffer (100 μL), before addition of 25 μL of assay buffer and then 25 ul of assay buffer containing the putative P2X7 receptor antagonist compound. The cells were then incubated at room temperature (19-21° C.) for 30 min before addition of ATP solution (50 μM). […] Antagonist pIC50 values for blocking ATP responses were determined using iterative curve fitting techniques.

SMILES | IC50
O=C(c1ccc(Cl)c(F)c1Cl)N1CCn2c(nnc2-c2ccccn2)C1 [Example 173, 7-[(2,4-dichloro-3-fluorophenyl)carbonyl]-3-(2-pyridinyl)-5,6,7,8-tetrahydro[1,2,4]triazolo[4,3-a]pyrazine] | < 10 nM
O=C(c1ccc(Cl)cc1Cl)N1CCn2c(nnc2-c2cnsn2)C1 [Example 160, 7-[(2,4-dichlorophenyl)carbonyl]-3-(1,2,5-thiadiazol-3-yl)-5,6,7,8-tetrahydro[1,2,4]triazolo[4,3-a]pyrazine] | < 100 nM
O=C(c1ccc(Cl)cc1Cl)N1CCn2c(nnc2-c2nccs2)C1 [Example 199, 7-[(2,4-Dichlorophenyl)carbonyl]-3-(1,3-thiazol-2-yl)-5,6,7,8-tetrahydro[1,2,4]triazolo[4,3-a]pyrazine] | < 100 nM
Cc1csnc1-c1nnc2n1CCN(C(=O)c1ccc(Cl)c(F)c1Cl)C2 [Example 203, 7-[(2,4-dichloro-3-fluorophenyl)carbonyl]-3-(4-methyl-3-isothiazolyl)-5,6,7,8-tetrahydro[1,2,4]triazolo[4,3-a]pyrazine] | < 100 nM
O=C(c1ccc(F)cc1Cl)N1CCn2c(nnc2-c2nccs2)C1 [Example 144, 7-[(2-chloro-4-fluorophenyl)carbonyl]-3-(1,3-thiazol-2-yl)-5,6,7,8-tetrahydro[1,2,4]triazolo[4,3-a]pyrazine] | < 100 nM
Cc1ccc(-c2nnc3n2CCN(C(=O)c2ccc(F)c(Cl)c2Cl)C3)o1 [Example 167, 7-[(2,3-Dichloro-4-fluorophenyl)carbonyl]-3-(5-methyl-2-furanyl)-5,6,7,8-tetrahydro[1,2,4]triazolo[4,3-a]pyrazine] | < 100 nM
O=C(c1ccc(Cl)c(F)c1Cl)N1CCn2c(nnc2-c2cnsn2)C1 [Example 190, 7-[(2,4-Dichloro-3-fluorophenyl)carbonyl]-3-(1,2,5-thiadiazol-3-yl)-5,6,7,8-tetrahydro[1,2,4]triazolo[4,3-a]pyrazine] | < 10 nM
Cc1csc(-c2nnc3n2CCN(C(=O)c2ccc(Cl)c(F)c2Cl)C3)n1 [Example 191, 7-[(2,4-Dichloro-3-fluorophenyl)carbonyl]-3-(4-methyl-1,3-thiazol-2-yl)-5,6,7,8-tetrahydro[1,2,4]triazolo[4,3-a]pyrazine] | < 100 nM
O=C(c1ccc(Cl)c(F)c1Cl)N1CCn2c(nnc2-c2cscn2)C1 [Example 149, 7-[(2,4-dichloro-3-fluorophenyl)carbonyl]-3-(1,3-thiazol-4-yl)-5,6,7,8-tetrahydro[1,2,4]triazolo[4,3-a]pyrazine] | < 10 nM
Cc1c(C(=O)N2CCn3c(nnc3-c3ncns3)C2)ccc(F)c1Cl [Example 193, 7-[(3-Chloro-4-fluoro-2-methylphenyl)carbonyl]-3-(1,2,4-thiadiazol-5-yl)-5,6,7,8-tetrahydro[1,2,4]triazolo[4,3-a]pyrazine] | < 10 nM
COc1ccnc(-c2nnc3n2CCN(C(=O)c2ccc(Cl)c(F)c2Cl)C3)c1 [Example 174, 7-[(2,4-dichloro-3-fluorophenyl)carbonyl]-3-[4-(methyloxy)-2-pyridinyl]-5,6,7,8-tetrahydro[1,2,4]triazolo[4,3-a]pyrazine] | < 10 nM
Cc1scnc1-c1nnc2n1CCN(C(=O)c1cccc(Cl)c1C)C2 [Example 207, 7-[(3-chloro-2-methylphenyl)carbonyl]-3-(5-methyl-1,3-thiazol-4-yl)-5,6,7,8-tetrahydro[1,2,4]triazolo[4,3-a]pyrazine] | < 100 nM
Cc1scnc1-c1nnc2n1CCN(C(=O)c1ccc(Cl)cc1Cl)C2 [Example 206, 7-[(2,4-dichlorophenyl)carbonyl]-3-(5-methyl-1,3-thiazol-4-yl)-5,6,7,8-tetrahydro[1,2,4]triazolo[4,3-a]pyrazine] | < 100 nM
Cc1ccc(C(=O)N2CCn3c(nnc3-c3cnccn3)C2)c(C(F)(F)F)c1 [Example 148, 7-{[4-methyl-2-(trifluoromethyl)phenyl]carbonyl}-3-(2-pyrazinyl)-5,6,7,8-tetrahydro[1,2,4]triazolo[4,3-a]pyrazine] | < 501 nM
O=C(c1cccc(C(F)(F)F)c1Cl)N1CCn2c(nnc2-c2ncccc2O)C1 [Example 166, 2-(7-{[2-Chloro-3-(trifluoromethyl)phenyl]carbonyl}-5,6,7,8-tetrahydro[1,2,4]triazolo[4,3-a]pyrazin-3-yl)-3-pyridinol] | < 10 nM
Cc1ccnc(-c2nnc3n2CCN(C(=O)c2ccc(Cl)c(F)c2Cl)C3)c1 [Example 172, 7-[(2,4-dichloro-3-fluorophenyl)carbonyl]-3-(4-methyl-2-pyridinyl)-5,6,7,8-tetrahydro[1,2,4]triazolo[4,3-a]pyrazine] | < 100 nM
O=C(c1ccc(Cl)c(F)c1Cl)N1CCn2c(nnc2-c2ccc(F)cc2O)C1 [Example 150, 2-{7-[(2,4-dichloro-3-fluorophenyl)carbonyl]-5,6,7,8-tetrahydro[1,2,4]triazolo[4,3-a]pyrazin-3-yl}-5-fluorophenol] | < 100 nM
O=C(c1ccc(F)c(Cl)c1Cl)N1CCn2c(nnc2-c2ncns2)C1 [Example 169, 7-[(2,3-dichloro-4-fluorophenyl)carbonyl]-3-(1,2,4-thiadiazol-5-yl)-5,6,7,8-tetrahydro[1,2,4]triazolo[4,3-a]pyrazine] | < 10 nM
O=C(c1ccc(Cl)cc1Cl)N1CCn2c(nnc2-c2ccon2)C1 [Example 161, 7-[(2,4-dichlorophenyl)carbonyl]-3-(3-isoxazolyl)-5,6,7,8-tetrahydro[1,2,4]triazolo[4,3-a]pyrazine] | < 501 nM
